A short description of the test: Test 2: blood pressure depression up to 24 hours and duration until 50% recovery, oral. The class given is in vivo, Male, spontaneously hypertension-developing rats. The following applies: for response vs control in vivo at 25 mg/kg: Rattus norvegicus; for Duration 50% recovery: duration until pressure recovered to 50% from the maximum depression value. As to the method: Male, spontaneously hypertension-developing rats of ages of 10 to 11 weeks (in groups of 3 to 5 animals) were used in the test. For blood pressure determination, systolic pressure was measured without anesthesia by an indirect tail-cuff method using a sphygmomanometer (PE-300, Narco Bio-System).

Where [1] appears, read: 1h after oral administration, percent based on that before administration (100), read-out: Depression value (%) of blood pressure, 1h.
Setting [2] is: 2h after oral administration, percent based on that before administration (100), read-out: Depression value (%) of blood pressure, 2h.
The mark [3] stands for this setting: 4h after oral administration, percent based on that before administration (100), read-out: Depression value (%) of blood pressure, 4h.
[4] abbreviates: 7h after oral administration, percent based on that before administration (100), read-out: Depression value (%) of blood pressure, 7h.
[5] abbreviates: 24h after oral administration, percent based on that before administration (100), read-out: Depression value (%) of blood pressure, 24h.
Setting [6] is: maximum lowering, percent based on that before administration (100), read-out: Depression value (%) of blood pressure, Max.

Read-outs that look alike come from different tables or passages of the source.

In the case of `COC(=O)C1=C(C)NC(C)=C(C(=O)OCCN(C)Cc2ccccc2)C1c1cccc([N+](=O)[O-])n1` (stereo not drawn) [(10), 2,6-Dimethyl-4-(6-nitro-2-pyridyl)-1,4-dihydropyridine-3,5-dicarboxylic ac id 3-β-(N-benzyl-N-methylamino)ethyl ester 5-methyl ester], the “Duration 50% recovery” value was 2.4 h. Further, under setting [1], the response vs control in vivo at 25 mg/kg came out at 99%. Also, the response vs control in vivo at 25 mg/kg under setting [2] is 95%. Also, under setting [3], the response vs control in vivo at 25 mg/kg was 107%. The response vs control in vivo at 25 mg/kg under setting [4] is 110%. The response vs control in vivo at 25 mg/kg under setting [5] stood at 120%. Also, under setting [6], the response vs control in vivo at 25 mg/kg is 95%.

With `COC(=O)C1=C(C)NC(C)=C(C(=O)OCCN(C)Cc2ccccc2)C1c1cc(C#N)ccn1` (stereo not drawn) [(3), 2,6-Dimethyl-4-(4-cyano-2-pyridyl)-1,4-dihydropyridyne-3,5-dicarboxylicacid 3-β-(N-benzyl-N-methylamino)ethyl ester 5-methyl ester], the “Duration 50% recovery” value worked out at 7.0 h. Further, the response vs control in vivo at 25 mg/kg under setting [1] is 61%. Also, the response vs control in vivo at 25 mg/kg under setting [2] was determined as 66%. The response vs control in vivo at 25 mg/kg under setting [3] came out at 74%. Further, under setting [4], the response vs control in vivo at 25 mg/kg came out at 82%. The response vs control in vivo at 25 mg/kg under setting [5] came out at 95%. Besides, the response vs control in vivo at 25 mg/kg under setting [6] was found to be 61%.

With `COC(=O)C1=C(C)NC(C)=C(C(=O)OCCN(C)Cc2ccccc2)C1c1ccnc(C#N)c1` (stereo not drawn) [(19), 2,6-Dimethyl-4-(2-cyano-4-pyridyl)-1,4-dihydropyridine-3,5-dicarboxylic ac id 3-β-(N-benzyl-N-methylamino)ethyl ester 5-methyl ester], the “Duration 50% recovery” value is 1.7 h. Moreover, under setting [1], the response vs control in vivo at 25 mg/kg came out at 75%. The response vs control in vivo at 25 mg/kg under setting [2] came to 94%. Besides, the response vs control in vivo at 25 mg/kg under setting [3] was 100%. Also, under setting [4], the response vs control in vivo at 25 mg/kg is 98%. Further, the response vs control in vivo at 25 mg/kg under setting [5] came to 99%. The response vs control in vivo at 25 mg/kg under setting [6] is 75%.

For the compound `COC(=O)C1=C(C)NC(C)=C(C(=O)OCCN(C)Cc2ccccc2)C1c1cncc([N+](=O)[O-])c1` (stereo not drawn) [(18), 2,6-Dimethyl-4-(5-nitro-3-pyridyl)-1,4-dihydropyridine-3,5-dicarboxylic ac id 3-β-(N-benzyl-N-methylamino)ethyl ester 5-methyl ester], the “Duration 50% recovery” value is on record as 3.7 h. Further, the response vs control in vivo at 25 mg/kg under setting [1] was 90%. For the same compound, under setting [2], the response vs control in vivo at 25 mg/kg turned out to be 86%. In addition, the response vs control in vivo at 25 mg/kg under setting [3] was determined as 95%. Also, the response vs control in vivo at 25 mg/kg under setting [4] was found to be 96%. Moreover, the response vs control in vivo at 25 mg/kg under setting [5] was 96%. Moreover, under setting [6], the response vs control in vivo at 25 mg/kg stood at 86%.

As to `COC(=O)C1=C(C)NC(C)=C(C(=O)OCCN(C)Cc2ccccc2)C1c1cccc(C(F)(F)F)n1` (stereo not drawn) [(9), 2,6-Dimethyl-4-(6-trifluoromethyl-2-pyridyl)-1,4-dihydropyridine-3,5-dicarboxylic acid 3-β-(N-benzyl-N-methylamino)ethyl ester 5-methyl ester], the “Duration 50% recovery” value turned out to be 4.6 h. Moreover, under setting [1], the response vs control in vivo at 25 mg/kg amounted to 85%. In addition, the response vs control in vivo at 25 mg/kg under setting [2] is 92%. For the same compound, the response vs control in vivo at 25 mg/kg under setting [3] was determined as 91%. For the same compound, the response vs control in vivo at 25 mg/kg under setting [4] turned out to be 104%. The response vs control in vivo at 25 mg/kg under setting [5] is 119%. Under setting [6], the response vs control in vivo at 25 mg/kg worked out at 85%.

In the case of `COC(=O)C1=C(C)NC(C)=C(C(=O)OCCN(C)Cc2ccccc2)C1c1cccnc1C#N` (stereo not drawn) [(12), 2,6-Dimethyl-4-(2-cyano-3-pyridyl)-1,4-dihydropyridine-3,5-dicarboxylic ac id 3-β-(N-benzyl-N-methylamino)ethyl ester 5-methyl ester], the “Duration 50% recovery” value is recorded as 5.6 h. Moreover, the response vs control in vivo at 25 mg/kg under setting [1] turned out to be 66%. Also, the response vs control in vivo at 25 mg/kg under setting [2] stood at 71%. The response vs control in vivo at 25 mg/kg under setting [3] was 76%. For the same compound, under setting [4], the response vs control in vivo at 25 mg/kg came out at 88%. Moreover, under setting [5], the response vs control in vivo at 25 mg/kg worked out at 98%. Moreover, the response vs control in vivo at 25 mg/kg under setting [6] is 66%.

On to `COC(=O)C1=C(C)NC(C)=C(C(=O)OCCN(C)Cc2ccccc2)C1c1ccc(C#N)nc1` (stereo not drawn) [(15), 2,6-Dimethyl-4-(6-cyano-3-pyridyl)-1,4-dihydropyridine-3,5-dicarboxylic ac id 3-β-(N-benzyl-N-methylamino)ethyl ester 5-methyl ester], for which the “Duration 50% recovery” value was found to be 15.1 h. Also, the response vs control in vivo at 25 mg/kg under setting [1] worked out at 88%. The response vs control in vivo at 25 mg/kg under setting [2] is 90%. For the same compound, the response vs control in vivo at 25 mg/kg under setting [3] was 83%. Further, the response vs control in vivo at 25 mg/kg under setting [4] amounted to 89%. Further, the response vs control in vivo at 25 mg/kg under setting [5] is 95%. Moreover, the response vs control in vivo at 25 mg/kg under setting [6] is 83%.

Consider `COC(=O)C1=C(C)NC(C)=C(C(=O)OCCN(C)Cc2ccccc2)C1c1cccc(Cl)n1` (stereo not drawn) [(7), 2,6-Dimethyl-4-(6-chloro-2-pyridyl)-1,4-dihydropyridine-3,5-dicarboxylic a cid 3-β-(N-benzyl-N-methylamino)ethyl ester 5-methyl ester], for which the “Duration 50% recovery” value amounted to 6.0 h. Besides, the response vs control in vivo at 25 mg/kg under setting [1] is 83%. Also, the response vs control in vivo at 25 mg/kg under setting [2] is 84%. Under setting [3], the response vs control in vivo at 25 mg/kg stood at 87%. Also, the response vs control in vivo at 25 mg/kg under setting [4] was 93%. The response vs control in vivo at 25 mg/kg under setting [5] is 101%. Moreover, the response vs control in vivo at 25 mg/kg under setting [6] was 83%.

In the case of `COC(=O)C1=C(C)NC(C)=C(C(=O)OCCN(C)Cc2ccccc2)C1c1cc(Br)ccn1` (stereo not drawn) [(2), 2,6-Dimethyl-4-(4-bromo-2-pyridyl)-1,4-dihydropyridine-3,5-dicarboxylicacid 3-β-(N-benzyl-N-methylamino)ethyl ester 5-methyl ester], the “Duration 50% recovery” value stood at 5.8 h. The response vs control in vivo at 25 mg/kg under setting [1] was determined as 70%. Besides, under setting [2], the response vs control in vivo at 25 mg/kg was found to be 76%. The response vs control in vivo at 25 mg/kg under setting [3] came to 75%. The response vs control in vivo at 25 mg/kg under setting [4] turned out to be 92%. Further, the response vs control in vivo at 25 mg/kg under setting [5] came to 102%. The response vs control in vivo at 25 mg/kg under setting [6] was 70%.

On to `COC(=O)C1=C(C)NC(C)=C(C(=O)OC)C1c1ccccc1[N+](=O)[O-]` [Nif, 2,6-dimethyl-4-(2-nitrophenyl)-1,4-dihydropyridine-3,5-dicarboxylic acid dimethyl ester, reference compound], for which the “Duration 50% recovery” value is 19.4 h. In addition, where the note is “po, 1 h, read-out: Depression value (%) of blood pressure, 1h”, the response vs control in vivo at 25 mg/kg was found to be 72%. In addition, the response vs control in vivo at 25 mg/kg (po, 2 h, read-out: Depression value (%) of blood pressure, 2h) turned out to be 73%. Also, where the note is “po, 4 h, read-out: Depression value (%) of blood pressure, 4h”, the response vs control in vivo at 25 mg/kg was determined as 77%. In addition, under “po, 7 h, read-out: Depression value (%) of blood pressure, 7h”, the response vs control in vivo at 25 mg/kg came to 70%. In addition, the response vs control in vivo at 25 mg/kg (po, 24 h, read-out: Depression value (%) of blood pressure, 24h) stood at 90%. For the same compound, the response vs control in vivo at 25 mg/kg (read-out: Depression value (%) of blood pressure, Max) was determined as 70%.

As to `COC(=O)C1=C(C)NC(C)=C(C(=O)OCCN(C)Cc2ccccc2)C1c1ccnc(F)c1` (stereo not drawn) [(16), 2,6-Dimethyl-4-(2-fluoro-4-pyridyl)-1,4-dihydropyridine-3,5-dicarboxylic acid 3-β-(N-benzyl-N-methylamino)ethyl ester 5-methyl ester], the “Duration 50% recovery” value was 5.5 h. Also, the response vs control in vivo at 25 mg/kg under setting [1] came out at 92%. The response vs control in vivo at 25 mg/kg under setting [2] is 94%. In addition, under setting [3], the response vs control in vivo at 25 mg/kg was 95%. Further, the response vs control in vivo at 25 mg/kg under setting [4] is 98%. For the same compound, under setting [5], the response vs control in vivo at 25 mg/kg was found to be 96%. Besides, the response vs control in vivo at 25 mg/kg under setting [6] was found to be 92%.

Turning to `COC(=O)C1=C(C)NC(C)=C(C(=O)OCCN(C)Cc2ccccc2)C1c1ncccc1[N+](=O)[O-]` (stereo not drawn) [(1), 2,6-Dimethyl-4-(3-nitro-2-pyridyl)-1,4-dihydropyridine-3,5-dicarboxylicacid 3-β-(N-benzyl-N-methylamino)ethyl ester 5-methyl ester], the “Duration 50% recovery” value is on record as 8.7 h. Besides, the response vs control in vivo at 25 mg/kg under setting [1] came out at 65%. Besides, the response vs control in vivo at 25 mg/kg under setting [2] came out at 68%. Under setting [3], the response vs control in vivo at 25 mg/kg came out at 76%. Moreover, the response vs control in vivo at 25 mg/kg under setting [4] was 81%. Under setting [5], the response vs control in vivo at 25 mg/kg came to 96%. Further, the response vs control in vivo at 25 mg/kg under setting [6] is 65%.

Regarding `COC(=O)C1=C(C)NC(C)=C(C(=O)OCCN(C)Cc2ccccc2)C1c1cncc(C(F)(F)F)c1` (stereo not drawn) [(17), 2,6-Dimethyl-4-(5-trifluoromethyl-3-pyridyl)-1,4-dihydropyridine-3,5-dicarboxylic acid 3-β-(N-benzyl-N-methylamino)ethyl ester 5-methyl ester], the “Duration 50% recovery” value is given as 4.2 h. Besides, the response vs control in vivo at 25 mg/kg under setting [1] came out at 91%. Besides, the response vs control in vivo at 25 mg/kg under setting [2] is 92%. Moreover, the response vs control in vivo at 25 mg/kg under setting [3] was 95%. Also, the response vs control in vivo at 25 mg/kg under setting [4] was 98%. Further, the response vs control in vivo at 25 mg/kg under setting [5] amounted to 105%. Moreover, the response vs control in vivo at 25 mg/kg under setting [6] stood at 91%.

Regarding `COC(=O)C1=C(C)NC(C)=C(C(=O)OCCN(C)Cc2ccccc2)C1c1cccnc1Br` (centres unmarked) [(11)], the “Duration 50% recovery” value is on record as 6.7 h. Moreover, the response vs control in vivo at 25 mg/kg under setting [1] worked out at 83%. Moreover, the response vs control in vivo at 25 mg/kg under setting [2] was 82%. Under setting [3], the response vs control in vivo at 25 mg/kg stood at 87%. Under setting [4], the response vs control in vivo at 25 mg/kg was determined as 91%. Under setting [5], the response vs control in vivo at 25 mg/kg was 97%. For the same compound, under setting [6], the response vs control in vivo at 25 mg/kg worked out at 82%.

These data come from patent US4849429A, “Certain 1,4-dihydro-2,6-dilower-alkyl-4-(mono-substituted pyridyl) useful for treating coronary artery or cerebral artery disease” (The Green Cross Corporation, priority 1985, dated 1989).
